# Reference: patent publication US8012979B2, “Compounds and their uses 707” (AstraZeneca AB, priority 2007, dated 2011)
# Target: T1, human active recombinant p38α-6His tagged (Homo sapiens, UniProt Q16539)
# T1 construct: 6His
# Test: p38 Alpha Enzyme Assay (AlphaScreen, biotinylated-ATF2 substrate)
# Assay type: biochemical
# Conditions: pre-incubated 4 hours at 37° C., reaction initiated with ATP; 0.5 nM enzyme; read-out: p38 pIC50 (converted)
# Description: The ability of the compounds of formula (I) to inhibit p38 kinase may be determined using the following biological assay:
# Enzyme assays were performed in polypropylene 96 well plates. The following solutions were added to each well; 10 μL of compound dilutions in assay buffer (20 mM HEPES pH 7.4, containing 20 mM magnesium acetate, 0.005% (w/v) Tween-20, 10 mM DTT) containing 1% (v/v) DMSO or assay buffer containing 1% (v/v) DMSO alone, 70 μL of assay buffer containing 36 nM substrate (biotinylated-ATF2) and 10 μL of an appropriate dilution of human active recombinant p38α-6His tagged. Depending on batch of p38, an appropriate dilution was typically a 5 nM solution to give a final enzyme concentration of 0.5 nM. At this stage, background control wells also received 50 μL of AlphaScreen quench buffer (10 mM HEPES pH 7.4 containing 100 mM EDTA, 0.2% (w/v) bovine serum albumin). The plate was covered, pre-incubated for 4 hours at 37° C. and the enzyme reaction initiated by addition of 10 μL 1 mM ATP. After incubation for a further 45 minutes at 37° C., the reaction was stopped by addition of 50 μL quench reagent and 50 μL of the quenched reaction mixture transferred to an opaque, white 96-well plate. Detection reagent, 25 μL of 10 mM HEPES pH 7.4 containing 100 mM EDTA, 0.2% (w/v) bovine serum albumin, 0.3 nM anti phosphoATF2 antibody and 25 μg/mL of ‘AlphaScreen protein A acceptor and donor beads’ (PerkinElmer Inc.), was added to all wells in a darkened room, the plate sealed and left in the dark for at least 5 hours before AlphaScreen readings were taken using a Perkin Elmer EnVision reader. Total, uninhibited activity was determined from assays performed in each assay plate. The mean control in the absence of p38 activity was subtracted from each well. Data were expressed as percent inhibition of total activity using equation 1. Percent Inhibition=100*(1−Test/Control) Eq.1 Where . . . . • Test=p38 kinase activity in the presence of compound • Control=p38 kinase activity in the absence of compound.
# pIC50 is defined as the logarithm of the reciprocal of the concentration of compound required for 50% reduction in total p38 kinase activity.
# T1 sequence (Q16539 whole entry): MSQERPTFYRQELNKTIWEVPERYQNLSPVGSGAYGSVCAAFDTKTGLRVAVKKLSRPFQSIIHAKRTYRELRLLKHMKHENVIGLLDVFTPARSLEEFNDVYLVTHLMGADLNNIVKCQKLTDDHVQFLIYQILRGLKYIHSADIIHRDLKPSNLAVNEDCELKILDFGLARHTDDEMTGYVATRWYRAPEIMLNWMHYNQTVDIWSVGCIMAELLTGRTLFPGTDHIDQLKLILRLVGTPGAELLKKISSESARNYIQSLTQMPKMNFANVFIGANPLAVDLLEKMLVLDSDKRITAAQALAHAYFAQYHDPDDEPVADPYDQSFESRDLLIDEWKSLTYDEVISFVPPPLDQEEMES
row,Structure (SMILES),IC50 [nM]
1,"Cc1c(F)cc(C(=O)NC2CC2)cc1-c1ccc2c(=O)n(CC3CC3)cc(CN3CCN[C@@H](CCO)C3)c2c1 [Example 117, (S)—N-Cyclopropyl-3-(2-(cyclopropylmethyl)-4-((3-(2-hydroxyethyl)piperazin-1-yl)methyl)-1-oxo-1,2-dihydroisoquinolin-6-yl)-5-fluoro-4-methylbenzamide]",0.158
2,"CC[C@H]1CN(Cc2cn(CC3CC3)c(=O)c3ccc(-c4cc(C(=O)NC5CC5)cc(F)c4C)cc23)CCN1 [Example 116, (S)—N-Cyclopropyl-3-(2-(cyclopropylmethyl)-4-((3-ethylpiperazin-1-yl)methyl)-1-oxo-1,2-dihydroisoquinolin-6-yl)-5-fluoro-4-methylbenzamide]",0.501
3,"Cc1ccc(C(=O)NC2CC2)cc1-c1ccc2c(=O)[nH]ccc2c1 [Example 11, N-Cyclopropyl-4-methyl-3-(1-oxo-1,2-dihydro-isoquinolin-6-yl)-benzamide]",25.1
4,Cc1c(F)cc(C(=O)NC2CC2)cc1-c1ccc2c(=O)n(Cc3ccc(S(C)(=O)=O)cc3)cc(CN3CCN(C)[C@@H](CO)C3)c2c1 [Example 115],0.1
5,"Cc1c(F)cc(C(=O)NC2CC2)cc1-c1ccc2c(=O)n(CC3CC3)cc(CNCCCN(C)C)c2c1 [Example 77, N-Cyclopropyl-3-(2-(cyclopropylmethyl)-4-((3-(dimethylamino)propylamino)methyl)-1-oxo-1,2-dihydroisoquinolin-6-yl)-5-fluoro-4-methylbenzamide]",1.58
6,"Cc1c(F)cc(C(=O)NC2CC2)cc1-c1ccc2c(=O)n(CC3CC3)cc(CN3CC[C@@H](N)C3)c2c1 [Example 109, (R)-3-(4-((3-Aminopyrrolidin-1-yl)methyl)-2-(cyclopropylmethyl)-1-oxo-1,2-dihydroisoquinolin-6-yl)-N-cyclopropyl-5-fluoro-4-methylbenzamide]",1.58
7,"Cc1c(F)cc(C(=O)NC2CC2)cc1-c1ccc2c(=O)n(CC3CC3)cc(CN3C[C@@H](N)C[C@@H]3CO)c2c1 [Example 119, 3-(4-(((2R,4S)-4-Amino-2-(hydroxymethyl)pyrrolidin-1-yl)methyl)-2-(cyclopropylmethyl)-1-oxo-1,2-dihydroisoquinolin-6-yl)-N-cyclopropyl-5-fluoro-4-methylbenzamide]",0.398
8,"Cc1ccc(C(=O)NC2CC2)cc1-c1ccc2c(=O)n(C(C)c3ccccc3)ccc2c1 (stereo not shown) [Example 121, N-Cyclopropyl-4-methyl-3-(1-oxo-2-(1-phenylethyl)-1,2-dihydroisoquinolin-6-yl)benzamide]",3.98
9,"Cc1c(F)cc(C(=O)NC2CC2)cc1-c1ccc2c(=O)n(Cc3ccc(S(C)(=O)=O)cc3)cc(CN3CCN(C)CC3)c2c1 [Example 112, N-Cyclopropyl-3-fluoro-4-methyl-5-(4-((4-methylpiperazin-1-yl)methyl)-2-(4-(methylsulfonyl)benzyl)-1-oxo-1,2-dihydroisoquinolin-6-yl)benzamide]",0.126
10,"Cc1c(F)cc(C(=O)NC2CC2)cc1-c1ccc2c(=O)n(CC3CC3)cc(CN3CCN[C@H](CO)C3)c2c1 [Example 102, (S)—N-Cyclopropyl-3-(2-(cyclopropylmethyl)-4-((3-(hydroxymethyl)piperazin-1-yl)methyl)-1-oxo-1,2-dihydroisoquinolin-6-yl)-5-fluoro-4-methylbenzamide]",0.0501

# Next, values leading:
row,IC50 [nM],Structure (SMILES)
1,3.98,"Cc1ccc(C(=O)NC2CC2)cc1-c1ccc2c(=O)n(CC3CC3)cc(CN(C)CCN(C)C)c2c1 [Example 68, N-Cyclopropyl-3-(2-(cyclopropylmethyl)-4-(((2-(dimethylamino)ethyl)(methyl)amino)methyl)-1-oxo-1,2-dihydroisoquinolin-6-yl)-4-methylbenzamide]"
2,25.1,"Cc1ccc(C(=O)NC2CC2)cc1-c1ccc2c(=O)n(Cc3ccncc3)cc(C(=O)N3CCC(N4CCCC4)CC3)c2c1 [Example 54, N-Cyclopropyl-4-methyl-3-(1-oxo-2-(pyridin-4-ylmethyl)-4-(4-(pyrrolidin-1-yl)piperidine-1-carbonyl)-1,2-dihydroisoquinolin-6-yl)benzamide]"
3,10,"Cc1ccc(C(=O)NC2CC2)cc1-c1ccc2c(=O)n(CC3CC3)cc(CNCCCN(C)C)c2c1 [Example 71, N-Cyclopropyl-3-(2-(cyclopropylmethyl)-4-((3-(dimethylamino)propylamino)methyl)-1-oxo-1,2-dihydroisoquinolin-6-yl)-4-methylbenzamide]"
4,0.158,"Cc1ccc(C(=O)NC2CC2)cc1-c1ccc2c(=O)n(CC3CC3)cc(CN3CCCNCC3)c2c1 [Example 70, N-Cyclopropyl-3-(2-cyclopropylmethyl-4-[1,4]diazepan-1-ylmethyl-1-oxo-1,2-dihydro-isoquinolin-6-yl)-4-methyl-benzamide]"
5,2,"Cc1ccc(C(=O)NC2CC2)cc1-c1ccc2c(=O)n(Cc3cccc(OCCN4CCCC4)c3)ccc2c1 [Example 33, N-Cyclopropyl-4-methyl-3-{1-oxo-2-[3-(2-pyrrolidin-1-ylethoxy)benzyl]-1,2-dihydroisoquinolin-6-yl}benzamide]"
6,0.631,"Cc1ccc(C(=O)NC2CC2)cc1-c1ccc2c(=O)n(Cc3ccc(C(=O)NCCCN4CCCC4)cc3)ccc2c1 [Example 24, N-Cyclopropyl-4-methyl-3-(1-oxo-2-(4-(3-(pyrrolidin-1-yl)propylcarbamoyl)benzyl)-1,2-dihydroisoquinolin-6-yl)benzamide]"
7,2.51,"Cc1ccc(C(=O)NC2CC2)cc1-c1ccc2c(=O)n(Cc3ccccc3)cc(C(=O)NCCN3CCCCC3)c2c1 [Example 48, 2-Benzyl-6-(5-(cyclopropylcarbamoyl)-2-methylphenyl)-1-oxo-N-(2-(piperidin-1-yl)ethyl)-1,2-dihydroisoquinoline-4-carboxamide]"
8,10,"Cc1ccc(C(=O)NC2CC2)cc1-c1ccc2c(=O)n(Cc3ccccn3)ccc2c1 [Example 126, N-Cyclopropyl-4-methyl-3-(1-oxo-2-(pyridin-2-ylmethyl)-1,2-dihydroisoquinolin-6-yl)benzamide]"
9,0.2,"Cc1ccc(C(=O)NC2CC2)cc1-c1ccc2c(=O)n(Cc3ccc(C(=O)O)cc3)cc(CN3CCCN(C)CC3)c2c1 [Example 104, 4-((6-(5-(Cyclopropylcarbamoyl)-2-methylphenyl)-((4-methyl-1,4-diazepan-1-yl)methyl)-1-oxoisoquinolin-2(1H)-yl)methyl)benzoic acid]"
10,2,"Cc1ccc(C(=O)NC2CC2)cc1-c1ccc2c(=O)n(Cc3ccncc3)cc(C(=O)N3CCC(N)CC3)c2c1 [Example 58, 3-(4-(4-Aminopiperidine-1-carbonyl)-1-oxo-2-(pyridin-4-ylmethyl)-1,2-dihydroisoquinolin-6-yl)-N-cyclopropyl-4-methylbenzamide]"
11,50.1,"Cc1ccc(C(=O)NC2CC2)cc1-c1ccc2c(=O)n(Cc3ccccc3CN(C)C)ccc2c1 [Example 16, N-Cyclopropyl-3-[2-(2-dimethylaminomethyl-benzyl)-1-oxo-1,2-dihydro-isoquinolin-6-yl]-4-methyl-benzamide]"
12,0.158,"Cc1ccc(C(=O)NC2CC2)cc1-c1ccc2c(=O)n(Cc3ccc(C(=O)N(C)C)cc3)cc(CN3CCCN(C)CC3)c2c1 [Example 105, N-Cyclopropyl-3-(2-(4-(dimethylcarbamoyl)benzyl)-4-((4-methyl-1,4-diazepan-1-yl)methyl)-1-oxo-1,2-dihydroisoquinolin-6-yl)-4-methylbenzamide]"
